# EP2149557A1, “Styrylquinolines, their process of preparation and their therapeutic uses” (BioAlliance Pharma, priority 2008, dated 2010)
# Assays:
# [1] = tested on: wild type HIV-1 virus (NL 4.3 strains); assay: Antiviral activity assay on Hela P4 cells (beta-galactosidase, CPRG); type: cell-based; settings: Human immunodeficiency virus 1; HelaP4 cells, 48 hours incubation
# Description: The antiviral activity is determined by infecting HelaP4 cells with a wild type HIV-1 virus (NL 4.3 strains at 3 ng) on cells in presence or absence of drugs. A serial dilution of drugs is done to evaluate the EC50. The effective concentration is the concentration of product at which virus replication is inhibited by 50 percent. After 48 hours incubation, the quantification is done by the evaluation of β-Galactosidase produced by the infected Hela P4 cells. The viral activity is evaluated by colorimetric assay, CPRG, followed by plate reading at 570 nm with a reference of 690 nm. The CPRG test is a colorimetric assay which allows to quantity the β-galactosidase produced by HIV-1 infected indicator cells (the β-Gal gene being under the control of the HIV-1 LTR).
# HBX2 HIV integrase [2] = molecular target: T1, HBX2 HIV integrase (Human immunodeficiency virus type 1 group M subtype B, UniProt P04585); assay: Strand transfer assay; type: biochemical; settings: IN 200nM, substrate DNA 12.5 nM, up to 2 h at 37°C, read-out: Transfert IC50
# Description: The pET-15b-IN plasmid contains the cDNA encoding the HBX2 HIV integrase. His-tagged integrase protein was overexpressed in Escherichia coli BL21 (DE3) and purified under native conditions. Briefly, at an OD of 0.8, fusion protein expression was induced in bacterial cultures by the addition of IPTG (1 mM). Cultures were incubated for 3 h at 37°C, after which cells were centrifuged. The cell pellet was resuspended in ice-cold buffer A [20 mM Tris-HCl (pH 8), 1 M NaCl, 4 mM β-mercaptoethanol, and 5 mM imidazole], treated with lysozyme for 1 h on ice, and sonicated. After centrifugation (30 min at 10 000 rpm), the supernatant was filtered (0.45 µm) and incubated for at least 2 h with Ni-NTA agarose beads (Pharmacia). The beads were washed twice with 10 volumes of buffer A, 10 volumes of buffer A with 50 mM imidazole, and 10 volumes of buffer A with 100 mM imidazole. His-tagged integrase was then eluted with buffer A supplemented with 50 µM ZnS04 and 1 M imidazole. […]
# Processing, strand transfer reactions were performed using U5A-U5B-2, in buffer containing 20 mM Tris (pH 7.2), 50 mM NaCl, 10 mM DTT, 10mM MgCl2. […] Gels were analyzed using a STORM Molecular Dynamics phosphorimager and quantified with Image Quant™ 4.1 software.
# HBX2 HIV integrase [3] = molecular target: T1, HBX2 HIV integrase; assay: 3' LTR processing assay; type: biochemical; settings: 3' processing, IN 200nM, substrate DNA 12.5 nM, up to 2 h at 37°C
# Description: For processing, strand transfer, 100 pmol of U5B, U5B-2, respectively, were radiolabeled using T4 polynucleotide kinase and 50 µCi of [γ-32P]ATP (3000 Ci/mmol). The T4 kinase was heat inactivated, and unincorporated nucleotides were removed using a Sephadex G-10 column (GE HealthCare). NaCl was added to a final concentration of 0.1 M, and complementary unlabeled strand U5A was added to either U5B or U5B-2. The mixture was heated to 90°C for 3 min, and the DNA was annealed by slow cooling.
# Processing reaction was performed using U5A-U5B, in buffer containing 20 mM Tris (pH 7.2), 50 mM NaCl, 10 mM DTT, and 10mM MgCl2. […] The reactions were stopped by phenol/chloroform extraction, and DNA products were precipitated with ethanol. The products were separated in TE containing 7 M urea and electrophoresed on an 18% denaturing acrylamide/urea gel. Gels were analyzed using a STORM Molecular Dynamics phosphorimager and quantified with Image Quant™ 4.1 software.
# [4] = Viability assay (cytotoxicity, MTT); type: cell-based; settings: human, HeLa-P4 cells, read-out: Cytoto -xicity IC50
# Description: (§1) The cytotoxicity of compounds was evaluated using un-infected and infected HeLa-P4 cell and CEM leukemia cells. CEM cell were obtained from the […] (Rockville, MD). A serial dilution of drugs is done to evaluate the cytotoxicity concentration and is identified by CC50 (concentration of drug which induces 50% of cytotoxicity) The HeLa-P4 was cultured in the presence or absence of compounds for 2 days. After this time period, cells were cultivated with MTT for 3 hours, further the medium is removed. And the lysis buffer is incubated for 1 hour, followed by plate reading at 540 nm in a microplate reader.
# HeLa-P4 cell = assay: Viability assay (cytotoxicity, MTT); type: cell-based; settings: 2 days, comparative compound table, read-out: Cytotoxicity IC50
# Description: as §1
SMILES,IC50 [1] [µM],IC50 (HBX2 HIV integrase [2]) [µM],IC50 (HBX2 HIV integrase [3]) [µM],IC50 at 2 days [4] [µM],CC50 (HeLa-P4 cell) [µM]
"CC(=O)c1ccc2ccc(/C=C/c3cc(O)c(O)cc3O)nc2c1O [SQE 95, (E)-1-(8-hydroxy-2-(2,4,5-trihydroxystyryl)quinolin-7-yl)ethanone]",13.8,0.199,0.199,12.5,–
"COc1cc(/C=C/c2ccc3ccc(C(=O)O)c(O)c3n2)cc(O)c1O [FZ41, reference compound]",–,–,–,–,> 100
